Laboratory results: patent US8338565B2, “Macrocyclic compounds for inhibition of tumor necrosis factor alpha” (Ensemble Therapeutics Corporation, priority 2008, dated 2012)
Numbered stars: 1 amine (or outer) side, 2 acyl side, 3 side chain; on linkers, the order of the positions; unused ones are H or OH. Bridge positions count the residues as written; N and C are the ends. Square brackets hold non-standard residues; d marks the D form. Peptide text beside a SMILES is read from it. Tartaroyl(2R,3R-(OAc)2) = CC(=O)O[C@@H](C(=O)[*:1])[C@@H](OC(C)=O)C(=O)[*:2]; Phe(3-CF3) = N[C@@H](Cc1cccc(C(F)(F)F)c1)C(=O)O; Phe(4-COOH) = N[C@@H](Cc1ccc(C(=O)O)cc1)C(=O)O; Phe(2,4-Cl2) = N[C@@H](Cc1ccc(Cl)cc1Cl)C(=O)O; Bip = N[C@@H](Cc1ccc(-c2ccccc2)cc1)C(=O)O; dBip = N[C@H](Cc1ccc(-c2ccccc2)cc1)C(=O)O; dPhe(4-NH2) = Nc1ccc(C[C@@H](N)C(=O)O)cc1; Phe(4-NH2) = Nc1ccc(C[C@H](N)C(=O)O)cc1; 2Nal = N[C@@H](Cc1ccc2ccccc2c1)C(=O)O; d(hPhe) = N[C@H](CCc1ccccc1)C(=O)O; hPhe = N[C@@H](CCc1ccccc1)C(=O)O; 2Thi = N[C@@H](Cc1cccs1)C(=O)O; d2Thi = N[C@H](Cc1cccs1)C(=O)O; Suc = O=C(CCC(=O)[*:2])[*:1]; Nphe = O=C(O)CNCc1ccccc1; βAla = NCCC(=O)O

target: T1, TNFα / TNFα receptor (TNFα R1/Fc) (Homo sapiens, UniProt P01375); assay: Inhibition of binding of TNFα to the TNFα receptor (plate ELISA competition); conditions: Activity (IC50, inhibition of TNFα binding to TNFα R1/Fc), Table 2
T1 construct: purchased R&D Systems
Procedure: The compounds listed in Table 2 below were assayed for ability to inhibit binding of TNFα to the TNFα receptor (TNFα R1/Fc). The assays were performed as described in the following procedure: TNFα (R&D Systems) was coated on high binding plate wells (Corning 96-well) at a single uniform concentration of 15 nM, 100 μL/well in PBS. The coating proceeded for 30 minutes at 37° C. then 10 minutes at 4° C. The coated plate was washed with PBST, then 250 μL/well of blocking solution (PBST 0.1% BSA, bovine serum albumin) was added and incubation proceeded for 30-45 minutes at room temperature with agitation. The solution phase competition proceeded separately with the dilutions of test compound in PBST (phosphate buffered saline with Tween 20), 2% DMSO in a polypropylene plate (Corning 96-well storage plate) with a single concentration, 8.33 nM of the high affinity receptor for TNFα (R&D Systems). This solution phase incubation proceeded for 30 minutes at room temperature with agitation and was then added to the washed TNFα coated assay plate, 100 μL/well, and was incubated for a further 30 minutes at room temperature with agitation. The assay plate was washed and 100 μL goat anti-human IgG (Fc) HRP labeled antibody in PBST, 13 pM, (KPL Cat#04-10-2) was added to each well. This incubation proceeded for 25-30 minutes at room temperature with agitation. Following this incubation step, the plate was washed and a 100 μL TMB solution (SUREBLUE™ TMB Peroxidase substrate, KPL) was added per well and allowed to stand approximately 3-5 minutes for development. The TMB reaction was stopped with the addition of 0.5N HCl and then the plate was read for absorbance at 450 nm.

T1 sequence (P01375 77-233 limits assumed, species assumed): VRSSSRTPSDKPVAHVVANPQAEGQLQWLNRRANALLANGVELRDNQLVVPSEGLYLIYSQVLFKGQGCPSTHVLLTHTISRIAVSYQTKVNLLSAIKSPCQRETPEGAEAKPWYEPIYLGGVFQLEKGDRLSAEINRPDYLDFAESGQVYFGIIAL

SMILES	IC50
O=C1COc2ccc(cc2)C[C@@H](C(=O)N[C@H](Cc2ccccc2)C(=O)O)NC(=O)[C@H](CCc2ccccc2)NC(=O)[C@@H](Cc2ccc(-c3ccccc3)cc2)NC(=O)[C@H](Cc2ccncc2)N1 [Compound 553]	< 10 µM

same assay, conditions: Table 2; read-out: Activity (IC50, inhibition of TNFα binding to TNFα R1/Fc)

SMILES	IC50
O=C1CCC(=O)N[C@H](CCc2ccccc2)C(=O)N[C@@H](Cc2ccc3ccccc3c2)C(=O)N[C@H](Cc2ccccc2)C(=O)N[C@H](C(=O)O)Cc2ccc(cc2)N1 [Compound 109] ([d(hPhe)][2Nal][dF][Phe(4-NH2)]-OH; linker N-4 via Suc)	10 to 30 µM
O=C1CCC(=O)N[C@@H](Cc2cccs2)C(=O)N[C@@H](Cc2ccc(-c3ccccc3)cc2)C(=O)N[C@@H](Cc2ccccc2)C(=O)N[C@H](C(=O)O)Cc2ccc(cc2)N1 [Compound 495] ([2Thi][Bip]F[Phe(4-NH2)]-OH; linker N-4 via Suc)	> 100 µM
O=C1CCC(=O)N[C@H](Cc2cccs2)C(=O)N[C@@H](Cc2cccc(C(F)(F)F)c2)C(=O)N[C@H](Cc2ccccc2)C(=O)N[C@H](C(=O)O)Cc2ccc(cc2)N1 [Compound 208] ([d2Thi][Phe(3-CF3)][dF][Phe(4-NH2)]-OH; linker N-4 via Suc)	> 100 µM
CC(=O)N[C@H]1CC(=O)N[C@H](Cc2cccs2)C(=O)N[C@@H](Cc2ccc(-c3ccccc3)cc2)C(=O)N[C@H](Cc2ccccc2)C(=O)N[C@H](C(=O)O)Cc2ccc(cc2)NC1=O [Compound 377]	> 100 µM
O=C1CCC(=O)N[C@H](Cc2cccs2)C(=O)N(Cc2ccccc2)CC(=O)N[C@H](Cc2ccccc2)C(=O)N[C@H](C(=O)O)Cc2ccc(cc2)N1 [Compound 101] ([d2Thi][Nphe][dF][Phe(4-NH2)]-OH; linker N-4 via Suc)	> 100 µM
O=C(O)CC[C@@H]1NC(=O)[C@H](Cc2ccc(-c3ccccc3)cc2)NC(=O)[C@@H](Cc2cccs2)NC(=O)CCC(=O)Nc2ccc(cc2)C[C@@H](C(=O)O)NC1=O [Compound 68] ([d2Thi][Bip]E[Phe(4-NH2)]-OH; linker N-4 via Suc)	> 100 µM
O=C1COc2ccc(cc2)C[C@@H](C(=O)O)NC(=O)[C@@H](Cc2ccccc2)NC(=O)[C@H](Cc2ccc(-c3ccccc3)cc2)NC(=O)[C@@H](Cc2cccs2)N1 [Compound 8]	30 to 100 µM
COc1ccc(-c2ccc(C[C@@H]3NC(=O)[C@@H](Cc4cccs4)NC(=O)[C@H](O)[C@@H](O)C(=O)Nc4ccc(cc4)C[C@@H](C(=O)O)NC(=O)[C@@H](Cc4ccccc4)NC3=O)cc2)cc1 [Compound 333]	30 to 100 µM
O=C1CCC(=O)N[C@H](Cc2cccs2)C(=O)N[C@@H](Cc2ccc(O)cc2)C(=O)N[C@H](Cc2ccccc2)C(=O)N[C@H](C(=O)O)Cc2ccc(cc2)N1 [Compound 87] ([d2Thi]Y[dF][Phe(4-NH2)]-OH; linker N-4 via Suc)	> 100 µM
O=C1COc2ccc(cc2)C[C@@H](C(=O)O)NC(=O)[C@@H](Cc2ccccc2)NC(=O)[C@@H](Cc2ccc(-c3ccccc3)cc2)NC(=O)[C@H](Cc2cccs2)N1 [Compound 210]	> 100 µM
O=C1COc2ccc(cc2)C[C@@H](C(=O)NCCO)NC(=O)[C@H](CCc2ccccc2)NC(=O)[C@@H](Cc2ccc(-c3ccccc3)cc2)NC(=O)[C@H](Cc2ccncc2)N1 [Compound 578]	> 100 µM
O=C1N[C@@H](C(=O)O)Cc2ccc(cc2)NC(=O)[C@H](O)[C@@H](O)C(=O)N[C@H](Cc2cccs2)C(=O)N[C@@H](Cc2ccc(-c3ccccc3)cc2)C(=O)N[C@H]1Cc1ccccc1 [Compound 275]	> 100 µM
O=C1COc2ccc(cc2)C[C@@H](C(=O)O)NC(=O)[C@@H](CCc2ccccc2)NC(=O)[C@H](Cc2ccc(Cl)cc2Cl)NC(=O)[C@@H](Cc2cccs2)N1 [Compound 147]	30 to 100 µM
O=C(O)CCNC(=O)[C@@H]1Cc2ccc(cc2)C(=O)NCCC(=O)N[C@H](CCc2ccccc2)C(=O)N[C@@H](Cc2ccc(-c3ccccc3)cc2)C(=O)N[C@H](Cc2ccccc2)C(=O)N1 [Compound 420] ([βAla][d(hPhe)][Bip][dF][Phe(4-COOH)][βAla]-OH; lactam N-5)	> 100 µM
CC(=O)O[C@H]1C(=O)Nc2ccc(cc2)C[C@H](C(=O)O)NC(=O)[C@@H](Cc2ccccc2)NC(=O)[C@H](Cc2ccc(Cl)cc2Cl)NC(=O)[C@@H](Cc2ccccc2)NC(=O)[C@@H]1OC(C)=O [Compound 233] ([dF][Phe(2,4-Cl2)][dF][dPhe(4-NH2)]-OH; linker N-4 via Tartaroyl(2R,3R-(OAc)2))	30 to 100 µM
O=C1COc2ccc(cc2)C[C@@H](C(=O)O)NC(=O)[C@H](CCc2ccccc2)NC(=O)[C@@H](Cc2ccc(-c3ccccc3)cc2)NC(=O)C(c2ccccc2)N1 (some centres unmarked) [Compound 507]	10 to 30 µM
O=C1COc2ccc(cc2)C[C@@H](C(=O)O)NC(=O)[C@H](Cc2ccc(-c3ccccc3)cc2)NC(=O)[C@@H](Cc2ccc(-c3ccccc3)cc2)NC(=O)[C@H](Cc2cccs2)N1 [Compound 726]	30 to 100 µM
O=C1CCC(=O)N[C@H](CCc2ccccc2)C(=O)NC(c2ccc(Br)cc2)C(=O)N[C@H](Cc2ccccc2)C(=O)N[C@H](C(=O)O)Cc2ccc(cc2)N1 (some centres unmarked) [Compound 183]	10 to 30 µM
O=C(O)CCCNC(=O)[C@@H]1Cc2ccc(cc2)NC(=O)[C@H](O)[C@@H](O)C(=O)N[C@H](Cc2cccs2)C(=O)N[C@@H](Cc2ccc(-c3ccccc3)cc2)C(=O)N[C@H](CCc2ccccc2)C(=O)N1 [Compound 402]	10 to 30 µM

Other lines, results leading:

IC50	SMILES
10 to 30 µM	O=C1COc2ccc(cc2)C[C@@H](C(=O)O)NC(=O)[C@H](CCc2ccccc2)NC(=O)[C@H](Cc2ccc(-c3ccccc3)cc2)NC(=O)[C@H](Cc2cccs2)N1 [Compound 254]
< 10 µM	C[C@H](NC(=O)[C@@H]1Cc2ccc(cc2)OCC(=O)N[C@@H](Cc2cccs2)C(=O)N[C@H](Cc2ccc(-c3ccccc3)cc2)C(=O)N[C@@H](CCc2ccccc2)C(=O)N1)C(=O)O [Compound 473]
< 10 µM	CC(=O)O[C@H]1C(=O)Nc2ccc(cc2)C[C@@H](C(=O)N[C@@H](Cc2ccccc2)C(=O)O)NC(=O)[C@H](CCc2ccccc2)NC(=O)[C@@H](Cc2ccc(-c3ccccc3)cc2)NC(=O)[C@H](Cc2cccs2)NC(=O)[C@@H]1OC(C)=O [Compound 412] ([2Thi][dBip][hPhe][Phe(4-NH2)]F-OH; linker N-4 via Tartaroyl(2R,3R-(OAc)2))
< 10 µM	O=C1COc2ccc(cc2)C[C@@H](C(=O)O)NC(=O)[C@H](Cc2ccccc2)NC(=O)[C@H](Cc2ccc(F)cc2)NC(=O)[C@H](Cc2cccs2)N1 [Compound 398]
< 10 µM	O=C1COc2ccc(cc2)C[C@@H](C(=O)N[C@@H](Cc2ccc(O)cc2)C(=O)O)NC(=O)[C@H](CCc2ccccc2)NC(=O)[C@@H](Cc2ccc(-c3ccccc3)cc2)NC(=O)[C@H](Cc2ccc(-c3ccccc3)cc2)N1 [Compound 567]
< 10 µM	O=C1COc2ccc(cc2)C[C@@H](C(=O)O)NC(=O)[C@H](Cc2ccc(F)cc2)NC(=O)[C@@H](Cc2ccc(-c3ccccc3)cc2)NC(=O)[C@H](Cc2ccncc2)N1 [Compound 637]
< 10 µM	O=C1CCC(=O)N[C@H](CCc2ccccc2)C(=O)N[C@@H](Cc2ccc(-c3ccccc3)cc2)C(=O)N[C@H](Cc2ccccc2)C(=O)N[C@H](C(=O)O)Cc2ccc(cn2)N1 [Compound 546]
< 10 µM	O=C1COc2ccc(cc2)C[C@@H](C(=O)O)NC(=O)[C@H](CCc2ccccc2)NC(=O)[C@@H](Cc2ccc(-c3ccccc3)cc2)NC(=O)[C@H](Cc2ccc(-c3ccc(F)cc3)cc2)N1 [Compound 698]
< 10 µM	O=C(O)CCCNC(=O)[C@@H]1Cc2ccc(cc2)OCC(=O)N[C@@H](Cc2ccncc2)C(=O)N[C@H](Cc2ccc(-c3ccccc3)cc2)C(=O)N[C@@H](CCc2ccccc2)C(=O)N1 [Compound 560]
